{
  "source": "patent US8168232B2",
  "about": "“Formulations and methods of using nitric oxide mimetics in cancer treatment” (priority 2000, dated 2012)",
  "key": {"[1]": {"tested_on": "MDA-MB-231 breast cancer cells", "assay": "Colony formation assay for doxorubicin resistance, MDA-MB-231 monolayer", "format": "cell-based, human", "settings": "200 μM doxorubicin", "procedure": "The resistance of MDA-MB-231 breast cancer cells to doxorubicin was determined following culture in 20% or 1% oxygen by counting the number of colonies formed. MDA-MB-231 cells were incubated in 1% O2 or 20% O2 for 24 hours. […] The cells were washed and then plated onto 35 mm plates at different dilutions. The cells were incubated for an additional 1-2 weeks in order to allow cell colonies to grow. At the end of the incubation period, the cells were fixed with Carnoy's fixative, stained with Crystal violet, rinsed and allowed to air dry. Colonies were counted visually. The surviving cells under each condition was determined by counting the number of colonies and was expressed as a fraction of the number of colonies that survived without doxorubicin exposure.\nUsing human MDA-MB-231 breast carcinoma cells in clonogenic assays, survival was determined following doxorubicin exposure and NO mimetic administration to both monolayer and spheroid cultures. […] However, these NO mimetics effectively attenuated the resistance to 200 μM doxorubicin associated with 3D culture by 90% and 30% respectively."}, "[2]": {"tested_on": "human PC-3 prostatic adenocarcinoma cells", "settings": "0.5% vs 20% O2; one-hour doxorubicin", "procedure": "(§1) Low tumor oxygenation (hypoxia) correlates with increased metastasis and resistance to radiotherapy and chemotherapy. […] This was followed by a one-hour incubation with doxorubicin and survival was assessed by colony formation assays. Western blot analysis was used to measure NO synthase (NOS) protein levels in cells cultured in 20% and 0.5% O2."}, "[3]": {"tested_on": "mouse TRAMP-C2 prostatic adenocarcinoma cells", "settings": "0.5% vs 20% O2; one-hour doxorubicin", "procedure": "as §1"}, "[4]": {"tested_on": "MDA-MB-231 breast carcinoma spheroids", "assay": "Clonogenic survival of MDA-MB-231 spheroids after doxorubicin", "format": "cell-based, human", "settings": "200 μM doxorubicin", "procedure": "Following initial cell plating, spheroids formed for 24, 48, 72, 96 or 120 h. At each time point, spheroids were exposed to 200 μM of doxorubicin, then disaggregated and plated for assessment of colony formation (survival).\nSpheroids were allowed to form for 72 h. DETA/NO was applied for the final 24 h of spheroid formation. Spheroids were then exposed to doxorubicin for 1 h, prior to disaggregation and plating for assessment of survival by clonogenic assay.\nUsing human MDA-MB-231 breast carcinoma cells in clonogenic assays, survival was determined following doxorubicin exposure and NO mimetic administration to both monolayer and spheroid cultures."}},
  "data": [
    {"smiles": "COc1cccc2c1C(=O)c1c(O)c3c(c(O)c1C2=O)C[C@@](O)(C(=O)CO)C[C@@H]3O[C@H]1C[C@H](N)[C@H](O)[C@H](C)O1", "note": "[doxorubicin]", "values": [
      {"measurement": "survival in monolayer culture", "setting": "[1]", "value": "zero"},
      {"measurement": "increased survival following doxorubicin after pre-incubation under hypoxia", "setting": "[2]", "value": "up to 8 fold"},
      {"measurement": "increased survival following doxorubicin after pre-incubation under hypoxia", "setting": "[3]", "value": "up to 12 fold"},
      {"measurement": "decrease in survival of tumor cells cultured as spheroids", "setting": "[4]", "value": 90, "unit": "%"}
    ]}
  ]
}
